Legend:
[1] = molecular target: T1, ACLY (Homo sapiens (Human), UniProt P53396); experiment: Human ACLY (hACLY) RF/MS activity assay; type: biochemical; details: 1 nM hACLY; 30 min pre-incubation; 15 μM Coenzyme A, 50 μM ATP, 50 μM citrate; CoA to Acetyl-CoA by RF/MS; read-out: RFMS IC50 GMean
Description: Compounds of the disclosure were evaluated for their efficacy in inhibiting hACLY using rapid fire mass spectrometry (RF/MS).
The final reaction volume for each compound was 20 μl and consisted of buffer (50 mM Hepes pH 8.0, 10 mM MgCl2, 0.003% BSA, 0.01% Brij35, 50 mM NaCl, 4 mM DTT) and 1 nM hACLY, EV12992, PP6692) using Greiner, 384 well small volume, deep well plates (Cat #784201). A two-fold dilution series with a top concentration of 10 μM was used to record a concentration response curve. Both the substrate (CoA) and product (Acetyl-CoA) were quantified, and given a ratio. […] The final DMSO-concentration was 1% (v/v). Compounds were pre-incubated for 30 min with the buffered enzyme solution at RT (20° C.), and substrate solution was added (final concentrations: 15 μM Coenzyme A, 50 μM ATP and 50 μM citrate) to initiate the enzyme reaction. The enzyme reaction was incubated for additional 30 min at RT. The reaction was quenched upon addition of 40 μl of 5% Formic acid in H2O and centrifuged (4350 rpm at 20° C. for 10 min).
Product formation was quantified using a RF/MS-based method based on mass change of CoA (substrate) to Acetyl-CoA (product).

[2] = molecular target: T1, ACLY; experiment: InCell Pulse assay (permeate HEK293 cells, bind to and stabilize ACLY); type: cell-based; details: HEK293 cells transfected with pICP-ACLY(FL)-ePL; 1 hour at 37° C., 55° C. heat pulse 10 minutes; read-out: InCell Pulse IC50 GMean
Description: HEK293 cells transfected for 24 hours with pICP-ACLY(FL)-ePL (3 μg DNA per T25 flask) using FuGene HD (Promega Corp.) were harvested and cryopreserved. On the day of the assay, the frozen transfected cells were thawed at 37° C., and the storage medium (DMEM with 2 mM L-Glutamine, 10% FBS and a final concentration of DMSO 10%) was exchanged with assay medium (OptiMEM; Gibco™, ThermoFischer Scientific). Compounds were 3-fold serially diluted in DMSO over 11-point concentration range. 100 nL of the corresponding dilutions were spotted into the assay plate (Greiner AG; 384 Well, PP, Small Volume, Deep Well, Natural, cat. no. 784201) followed by the addition of 20 μL of cell suspension adjusted with assay medium to 7.5E4 cells/mL. Subsequently, the plates were sealed and incubated for 1 hour at 37° C. Afterwards, the plates were fixed upside down in a rack and incubated in a 55° C. water bath for 10 minutes. Following this heat pulse step, plates were allowed to reach room temperature for 10 minutes and centrifuged for a few seconds at 1000 rpm and room temperature. 25 μL EA detection solution (working solution: 0.0167× InCell EA Reagent, 0.15× InCell Dilution Buffer, 0.167× InCell Lysis Buffer; 0.667× InCell Substrate Reagent; InCell Hunter Detection kit; Eurofins DiscoverX; cat. no. 96-0079) were added to each well. Afterwards, 42 μL were transferred from the assay plate to the detection plate (Corning Inc., 384-well Low Flange Black Flat Bottom Polystyrene NBS Microplate, cat. no. 3575), followed by an incubation for 1 hour at room temperature, a centrifugation step for 1 minute at 1000 rpm and the detection of the luminescence signal using an EnVision microplate reader (Perkin Elmer Inc.). Concentration-response curve-fitting and IC50 determination was performed using Evotec's in-house evaluation software APlus with a four-parameter non-linear regression fit model. Data was normalized to 0.5% (final concentration) DMSO as low/negative control and 1 μM (final concentration) NDI-094311 as high/positive control.

T1 sequence (P53396 whole entry): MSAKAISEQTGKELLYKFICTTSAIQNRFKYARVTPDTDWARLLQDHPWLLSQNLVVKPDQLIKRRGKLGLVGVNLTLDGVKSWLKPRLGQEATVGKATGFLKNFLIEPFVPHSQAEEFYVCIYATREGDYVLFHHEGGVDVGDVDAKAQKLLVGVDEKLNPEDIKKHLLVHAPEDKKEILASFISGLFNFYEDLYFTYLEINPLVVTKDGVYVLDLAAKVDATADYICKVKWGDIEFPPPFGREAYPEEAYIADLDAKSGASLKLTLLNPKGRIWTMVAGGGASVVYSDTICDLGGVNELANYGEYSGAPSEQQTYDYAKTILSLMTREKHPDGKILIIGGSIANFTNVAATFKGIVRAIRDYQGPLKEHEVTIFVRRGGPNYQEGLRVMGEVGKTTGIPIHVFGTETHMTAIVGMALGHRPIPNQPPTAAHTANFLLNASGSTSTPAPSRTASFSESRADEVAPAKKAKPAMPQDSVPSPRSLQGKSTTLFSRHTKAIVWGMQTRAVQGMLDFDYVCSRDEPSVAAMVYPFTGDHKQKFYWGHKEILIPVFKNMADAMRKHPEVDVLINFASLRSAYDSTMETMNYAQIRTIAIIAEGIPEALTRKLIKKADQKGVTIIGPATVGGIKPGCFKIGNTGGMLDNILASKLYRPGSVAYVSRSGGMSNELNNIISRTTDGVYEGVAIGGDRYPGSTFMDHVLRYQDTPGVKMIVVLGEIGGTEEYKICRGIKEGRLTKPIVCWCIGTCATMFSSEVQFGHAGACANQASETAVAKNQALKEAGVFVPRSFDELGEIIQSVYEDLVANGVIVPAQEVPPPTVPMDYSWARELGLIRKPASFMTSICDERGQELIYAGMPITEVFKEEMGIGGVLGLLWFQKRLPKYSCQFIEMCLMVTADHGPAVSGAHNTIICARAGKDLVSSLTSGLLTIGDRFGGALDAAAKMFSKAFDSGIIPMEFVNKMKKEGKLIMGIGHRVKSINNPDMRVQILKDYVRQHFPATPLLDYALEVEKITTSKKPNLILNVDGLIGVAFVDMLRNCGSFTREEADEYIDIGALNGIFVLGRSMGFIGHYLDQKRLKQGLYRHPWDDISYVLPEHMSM

| SMILES | IC50 [1] | IC50 [2] |
| --- | --- | --- |
| O=C1OCCOc2ccc(F)cc2-c2ccc(F)c(c2)NS(=O)(=O)c2cc1c[nH]c2=O [Compound 37, 4,21-difluoro-18,18-dioxo-8,11-dioxa-18λ6-thia-15,19-diazatetracyclo[18.3.1.113,17.02,7]pentacosa-1(23),2(7),3,5,13,17(25),20(24),21-octaene-12,16-dione] | 100 to 10000 nM | ≥ 50000 nM |
| Cc1cc2cc(n1)S(=O)(=O)Nc1cc(c(F)cc1F)-c1ccccc1OCCOC2=O [Compound 62, 21,23-difluoro-15-methyl-18,18-dioxo-8,11-dioxa-18λ6-thia-16,19-diazatetracyclo[18.3.1.113,17.02,7]pentacosa-1(24),2,4,6,13,15,17(25),20,22-nonaen-12-one] | ≥ 10000 nM | ≥ 50000 nM |
| O=C1NCCOc2ccccc2-c2cc(c(F)cc2F)NCc2cc1ccc2O [Compound 13, 21,23-difluoro-16-hydroxy-8-oxa-11,19-diazatetracyclo[18.3.1.1^13,17.0^2,7]pentacosa-1(23),2,4,6,13,15,17(25),20(24),21-nonaen-12-one] | ≥ 10000 nM | ≥ 50000 nM |
| O=C1OCCOc2ncccc2-c2cc(c(F)cc2F)NS(=O)(=O)c2cc1cc(Cl)c2O [Compound 32, 15-chloro-21,23-difluoro-16-hydroxy-8,11-dioxa-18lambda6-thia-6,19-diazatetracyclo[18.3.1.1^13,17.0^2,7]pentacosa-1(24),2,4,6,13,15,17(25),20,22-nonaene-12,18,18-trione] | < 20 nM | < 300 nM |
| O=C1OCCOc2ccccc2-c2cc(F)c(F)c(c2)NS(=O)(=O)c2cc1cc(Cl)c2O [Compound 54, 15-chloro-21,22-difluoro-16-hydroxy-18,18-dioxo-8,11-dioxa-18λ6-thia-19-azatetracyclo[18.3.1.113,17.02,7]pentacosa-1(23),2(7),3,5,13(25),14,16,20(24),21-nonaen-12-one] | < 20 nM | < 300 nM |
| O=C1OCc2ccccc2-c2cc(c(F)cc2F)NS(=O)(=O)c2cc1cc(Cl)c2O [Compound 78, 13-Chloro-19,21-difluoro-14-hydroxy-16,16-dioxo-9-oxa-16λ6-thia-17-azatetracyclo[16.3.1.111,15.02,7]tricosa-1(21),2(7),3,5,11(23),12,14,18(22),19-nonaen-10-one] | < 20 nM | < 300 nM |
| O=C1OCCOc2ccccc2-c2ccc(F)c(c2)NS(=O)(=O)c2cc1ncc2O [Compound 66, 21-fluoro-16-hydroxy-18,18-dioxo-8,11-dioxa-18λ6-thia-14,19-diazatetracyclo[18.3.1.113,17.02,7]pentacosa-1(24),2,4,6,13,15,17(25),20,22-nonaen-12-one] | 20 to 100 nM |  |
| O=C1NCCOc2ccccc2-c2cc3c(cc2F)CCN3C(=O)c2cc1ccc2O [Compound 11, 24-fluoro-16-hydroxy-8-oxa-11,19-diazapentacyclo[17.5.2.1^13,17.0^2,7.0^22,26]heptacosa-1(24),2,4,6,13,15,17(27),22,25-nonaene-12,18-dione] | ≥ 10000 nM |  |
| O=C1OCC2Cc3cccc(c3O2)-c2cc(c(F)cc2F)NS(=O)(=O)c2cc1cc(Cl)c2O (single isomer, unassigned) [Compound 41, 15-chloro-21,23-difluoro-16-hydroxy-18,18-dioxo-8,11-dioxa-18λ6-thia-19-azapentacyclo[18.3.1.16,9.113,17.02,7]hexacosa-1(23),2(7),3,5,13,15,17(25),20(24),21-nonaen-12-one] |  | < 300 nM |
| COc1c(Cl)cc2cc1S(=O)(=O)Nc1cc(ccc1O)-c1ccccc1OCCOC2=O [Compound 25, 15-chloro-21-hydroxy-16-methoxy-8,11-dioxa-18lambda6-thia-19-azatetracyclo[18.3.1.1^13,17.0^2,7]pentacosa-1(24),2,4,6,13,15,17(25),20,22-nonaene-12,18,18-trione] | ≥ 10000 nM |  |

Now from value to molecule:

| IC50 [1] | IC50 [2] | SMILES |
| --- | --- | --- |
| < 20 nM | < 300 nM | O=C1Cc2cc(Cl)c(O)c(c2)S(=O)(=O)Nc2cc(c(F)cc2F)-c2ccccc2CO1 [Compound 68, 14-chloro-20,22-difluoro-15-hydroxy-17,17-dioxo-9-oxa-17λ6-thia-18-azatetracyclo[17.3.1.112,16.02,7]tetracosa-1(22),2(7),3,5,12(24),13,15,19(23),20-nonaen-10-one] |
| < 20 nM | ≥ 50000 nM | N#Cc1ccc2c(c1)COC(=O)c1cc(Cl)c(O)c(c1)S(=O)(=O)Nc1cc-2c(F)cc1F [Compound 85, 13-chloro-19,21-difluoro-14-hydroxy-10,16,16-trioxo-9-oxa-16λ6-thia-17-azatetracyclo[16.3.1.111,15.02,7]tricosa-1(21),2(7),3,5,11,13,15(23),18(22),19-nonaene-5-carbonitrile] |
| 20 to 100 nM | 300 to 1000 nM | O=C1c2cc(Cl)c(O)c(c2)S(=O)(=O)Nc2cc(c(F)cc2F)-c2ccccc2OCC2CN1C2 [Compound 33, 16-chloro-22,24-difluoro-17-hydroxy-19,19-dioxo-8-oxa-19λ6-thia-12,20-diazapentacyclo[19.3.1.110,12.114,18.02,7]heptacosa-1(25),2,4,6,14,16,18(26),21,23-nonaen-13-one] |
| 20 to 100 nM | 300 to 1000 nM | CC1CCOC(=O)c2cc(Cl)c(O)c(c2)S(=O)(=O)Nc2cc(c(F)cc2F)-c2ccccc21 (stereo not shown) [Compound 43, 15-chloro-21,23-difluoro-16-hydroxy-8-methyl-18,18-dioxo-11-oxa-18λ6-thia-19-azatetracyclo[18.3.1.113,17.02,7]pentacosa-1(23),2(7),3,5,13,15,17(25),20(24),21-nonaen-12-one] |
| 100 to 10000 nM | 300 to 1000 nM | Cc1cc2cc(c1O)S(=O)(=O)Nc1cc(c(F)cc1F)-c1ccccc1CCOC2=O [Compound 75, 20,22-difluoro-15-hydroxy-14-methyl-17,17-dioxo-10-oxa-17λ6-thia-18-azatetracyclo[17.3.1.112,16.02,7]tetracosa-1(23),2,4,6,12,14,16(24),19,21-nonaen-11-one] |
| ≥ 10000 nM | ≥ 50000 nM | Cc1cccc2c1-c1cc(c(F)cc1F)NS(=O)(=O)c1cc(cc(Cl)c1O)C(=O)OCCO2 [Compound 49, 15-chloro-21,23-difluoro-16-hydroxy-3-methyl-18,18-dioxo-8,11-dioxa-18λ6-thia-19-azatetracyclo[18.3.1.113,17.02,7]pentacosa-1(23),2(7),3,5,13(25),14,16,20(24),21-nonaen-12-one] |
| 20 to 100 nM | ≥ 50000 nM | O=C1OCCOc2ccccc2-c2cc(c(F)cc2F)NS(=O)(=O)c2cc1cc(=O)[nH]2 [Compound 38, 21,23-difluoro-18,18-dioxo-8,11-dioxa-18λ6-thia-16,19-diazatetracyclo[18.3.1.113,17.02,7]pentacosa-1(23),2(7),3,5,13,17(25),20(24),21-octaene-12,15-dione] |
| < 20 nM | 300 to 1000 nM | O=C1OCCOc2ccccc2-c2ccc(OC(F)F)c(c2)NS(=O)(=O)c2cc1cc(Cl)c2O [Compound 55, 15-chloro-21-(difluoromethoxy)-16-hydroxy-18,18-dioxo-8,11-dioxa-18λ6-thia-19-azatetracyclo[18.3.1.113,17.02,7]pentacosa-1(23),2(7),3,5,13(25),14,16,20(24),21-nonaen-12-one] |
| < 20 nM | ≥ 50000 nM | CN1CCc2ccccc2-c2cc(c(F)cc2F)NS(=O)(=O)c2cc(cc(Cl)c2O)C1=O [Compound 71, 14-chloro-20,22-difluoro-15-hydroxy-10-methyl-17,17-dioxo-17λ6-thia-10,18-diazatetracyclo[17.3.1.112,16.02,7]tetracosa-1(22),2(7),3,5,12,14,16(24),19(23),20-nonaen-11-one] |
